Measurements: US20020046680A1, “Methine compound, a recording liquid for ink jet, and an ink jet recording method” (priority 2000, published 2002)

Experiments:
Type in all cases: physicochemical
[1] = Humidity and heat fastness of recorded image (percentage of colorant remaining); details: 80° C., humidity of 70%, 7 days, percentage of colorant remaining at reflection densities 1, 1.5 and 2.0
Description: (§1) Images were respectively recorded on a photo glossy paper (Photo glossy paper EX, ink jet paper manufactured by Fuji Photo Film Co., Ltd.) by an ink jet printer (“PM-770C”, manufactured by Seiko Epson Co., Ltd.) using the obtained ink liquids 1 to 9. Hue, light fastness, humidity and heat fastness and ozone gas resistance of the obtained images were evaluated.
Further, regarding humidity and heat fastness, image densities before and after storage at a temperature of 80° C. and a humidity of 70% for 7 days were measured in the same manner, and evaluated in terms of the percentage of colorant remaining.
(§2) Reflection density was measured at three points which were 1, 1.5 and 2.0, and the case in which the percentage of colorant remaining were 90% or more at any of the three densities was evaluated as A, the case in which the percentage of colorant remaining was less than 90% at one or two points was evaluated as B, and the case in which the percentage of colorant remaining was less than 90% at all densities was evaluated as C.

[2] = Ozone gas resistance of recorded image (percentage of colorant remaining); details: ozone gas 0.5±0.1 ppm, 7 days, room temperature, dark, percentage of colorant remaining at reflection densities 1, 1.5 and 2.0
Description: Regarding ozone gas resistance, the photo glossy papers on which the above-described images were formed were stood alone for 7 days in a box having an ozone gas concentration of 0.5±0.1 ppm in which were set at room temperature and in a dark room, and image densities before and after storage under ozone gas atmosphere were measured by using a reflection densitometer (X-Rite310TR), and evaluated in terms of the percentage of colorant remaining. The fore-mentioned reflection density was measured at three points which were 1, 1.5 and 2.0. The ozone gas concentration in the box was measured using an ozone gas monitor manufactured by APPLICS (Model OZG-EM-01). The case in which the percentage of colorant remaining were 70% or more at any of the densities was evaluated as A, the case in which the percentage of colorant remaining was less than 70% at one or two points was evaluated as B, and the case in which the percentage of colorant remaining was less than 70% at all densities was evaluated as C. It was evaluated at three stages.

[3] = Light fastness of recorded image (xenon light, percentage of colorant remaining); details: xenon light (85000 lux) for 7 days, percentage of colorant remaining at reflection densities 1, 1.5 and 2.0
Description: as §1
Regarding light fastness, an image-receiving material on which images were recorded was irradiated with xenon light (85000 lux) for 7 days using a weather meter (Atlas C. 165), the image densities before and after xenon irradiation were measured by using a reflection densitometer (X-Rite310TR), and the light fastness was evaluated in terms of the percentage of colorant remaining.
as §2

## Cc1ccc2[nH]c3cc4c(=O)c5cc(C)ccc5[nH]c4cc3c(=O)c2c1 [C. I. Pigment Red 122]
[1]
  Humidity and heat fastness: A (the percentage of colorant remaining were 90% or more at any of the three densities)
[2]
  ozone resistance: A (the percentage of colorant remaining were 70% or more at any of the densities)
[3]
  Light fastness: A (the percentage of colorant remaining were 90% or more at any of the three densities)
